From US7645881B2, “Methods for treating hepatitis C” (PTC Therapeutics, Inc., priority 2004, dated 2010) come the findings set out here.

Data set [1] deals with HCV replicon. The experiment in a line: microbe, parasite or virus in culture. The data set is classed as cell-based. Conditions: Hepatitis C virus, 48 h, read-out: Replicon IC50s μM.

Consider `Nc1c(C(=O)N2CCOCC2)sc2nc3c(cc12)CCCCC3` [Compound 1], for which the melting point was 203 to 204 °C. In addition, the IC50 in data set [1] was greater than 2 µM. As for `CC(C)(C)c1cc(C(F)(F)F)c2c(N)c(C(N)=O)sc2n1` [Compound 2], the IC50 in data set [1] was greater than 2 µM. `CCc1c(C)nc2sc(C(=O)OC(C)(C)C)c(N)c2c1C` [Compound 3, tert-Butyl 3-amino-5-ethyl-4,6-dimethylthieno[2,3-B]pyridine-2-carboxylate] came in with a melting point of 135 to 136 °C. Moreover, the IC50 in data set [1] was in the range of 0.5 to 2 µM.

On to `CC1(C)Cc2c(c(N3CCOCC3)nc3sc(C(N)=O)c(N)c23)CO1` [Compound 4], for which the IC50 in data set [1] is greater than 2 µM. The molecule `CCc1c(C)nc2sc(-c3nnc(-c4ccccc4)o3)c(N)c2c1C` [Compound 6, 5-ethyl-4,6-dimethyl-2-(5-phenyl-[1,3,4]oxadiazol-2-yl)-thieno[2,3-b]pyridin-3-yl amine] returned a melting point of 306 to 307 °C. In addition, in data set [1], the IC50 was 0.5 to 2 µM.

Consider `Cc1cccc(-c2nnc(-c3sc4nc(C)c(C)c(C)c4c3N)o2)c1` [Compound 7], for which the melting point fell in the range of 268 to 270 °C. Further, in data set [1], the IC50 was in the range of 0.5 to 2 µM. With `Cc1nc2sc(-c3nnc(-c4cccc(F)c4)o3)c(N)c2c(C)c1C` [Compound 8], the melting point lay in the range of 300 to 302 °C. Moreover, the IC50 in data set [1] was in the range of 0.5 to 2 µM.

Molecule `Cc1nc2sc(-c3nnc(-c4ccc(Cl)s4)o3)c(N)c2c(C)c1C` [Compound 9] had a melting point of 284 to 286 °C. Moreover, the IC50 in data set [1] lay in the range of 0.5 to 2 µM. On to `Cc1nc2sc(-c3nnc(-c4ccc(F)cc4)o3)c(N)c2c(C)c1C` [Compound 10], for which the melting point is 320 to 322 °C. The IC50 in data set [1] was in the range of 0.5 to 2 µM. In turn, `Cc1nc2sc(-c3nnc(-c4cccc(Cl)c4)o3)c(N)c2c(C)c1C` [Compound 11] gave a melting point of 302 to 303 °C. In addition, the IC50 in data set [1] was greater than 2 µM. As for `Cc1nc2sc(-c3nnc(-c4ccc(Cl)cc4)o3)c(N)c2c(C)c1C` [Compound 12], the melting point is 331 to 332 °C. For the same molecule, the IC50 in data set [1] is greater than 2 µM. `Cc1ccccc1-c1nnc(-c2sc3nc(C)c(C)c(C)c3c2N)o1` [Compound 13] returned a melting point of 261 to 262 °C. The IC50 in data set [1] was less than 0.5 µM.

`Cc1nc2sc(-c3nnc(-c4ccccc4F)o3)c(N)c2c(C)c1C` [Compound 14] displayed a melting point of 287 to 288 °C. The IC50 in data set [1] was less than 0.5 µM. `Cc1nc2sc(-c3nnc(-c4ccccc4Cl)o3)c(N)c2c(C)c1C` [Compound 15] showed a melting point of 284 to 286 °C. The IC50 in data set [1] is 0.5 to 2 µM. Take `Cc1nc2sc(-c3nnc(-c4ccccn4)o3)c(N)c2c(C)c1C` [Compound 16]: the melting point was in the range of 306 to 308 °C. Further, the IC50 in data set [1] was less than 0.5 µM. The molecule `CCCCNc1cc(C)c2c(N)c(C(N)=O)sc2n1` [Compound 17] registered a melting point of 169 to 170 °C. Moreover, the IC50 in data set [1] fell in the range of 0.5 to 2 µM. The corresponding values for `Cc1nc2sc(-c3nc(COc4ccc(Cl)c(Cl)c4)no3)c(N)c2c(C)c1C` [Compound 18] are 197 to 200 °C and 0.5 to 2 µM. As for `Cc1nc2sc(-c3nc(-c4cccs4)no3)c(N)c2c(C)c1C` [Compound 19], the melting point was 281 to 282 °C. Also, the IC50 in data set [1] was less than 0.5 µM.

For the molecule `COc1ccccc1-c1noc(-c2sc3nc(C)c(C)c(C)c3c2N)n1` [Compound 20], the melting point lay within 244 to 245 °C. Besides, in data set [1], the IC50 lay in the range of 0.5 to 2 µM. For the molecule `Cc1nc2sc(-c3noc(-c4ccccc4)n3)c(N)c2c(C)c1C` [Compound 21], the melting point is 248 to 250 °C. For the same molecule, the IC50 in data set [1] was less than 0.5 µM.

In the case of `Cc1nc2sc(-c3noc(-c4cccs4)n3)c(N)c2c(C)c1C` [Compound 22], the melting point is 260 to 265 °C. Besides, the IC50 in data set [1] is less than 0.5 µM. Turning to `COc1ccccc1-c1nnc(-c2sc3nc(C)c(C)c(C)c3c2N)o1` [Compound 23], the melting point lay within 238 to 240 °C. The IC50 in data set [1] was 0.5 to 2 µM. Molecule `Cc1nc2sc(-c3nc(-c4ccccc4)no3)c(N)c2c(C)c1C` [Compound 24, 4,5,6-trimethyl-2-(3-phenyl-[1,2,4]oxadiazol-5-yl)-thieno[2,3-b]pyridin-3-ylamine] showed a melting point of 276 to 278 °C. In addition, the IC50 in data set [1] is less than 0.5 µM. In turn, `Cc1nc2sc(-c3nc(-c4cccnc4)no3)c(N)c2c(C)c1C` [Compound 25] came in with a melting point of 278 to 280 °C. In addition, the IC50 in data set [1] lay within 0.5 to 2 µM.

On to `Nc1c(C(=O)Nc2ccccc2)sc2nc3c(cc12)CCCCC3` [Compound 28], for which, in data set [1], the IC50 is greater than 2 µM.

In the case of `Cc1cc(-c2cccs2)c2c(N)c(C#N)sc2n1` [Compound 30], the IC50 in data set [1] is greater than 2 µM. Turning to `CC(C)(C)OC(=O)c1sc2nc3c(c(-c4cccc(F)c4F)c2c1N)CCCCC3` [Compound 31], the IC50 in data set [1] was greater than 2 µM. With `CC(C)(C)OC(=O)c1sc2nc3c(c(-c4ccco4)c2c1N)CCCC3` [Compound 32], in data set [1], the IC50 was greater than 2 µM. With `CC(C)(C)OC(=O)c1sc2nc3c(c(-c4ccco4)c2c1N)CCC3` [Compound 33], the IC50 in data set [1] is greater than 2 µM. As to `CC(C)(C)OC(=O)c1sc2nc3c(c(-c4cccs4)c2c1N)CCCC3` [Compound 34], the IC50 in data set [1] was greater than 2 µM. `CCc1c(C)nc2sc(C(=O)OC(C)(C)C)c(-c3cccc(C#N)c3)c2c1C` [Compound 36]: in data set [1], the IC50 is greater than 2 µM.

As to `CCc1c(C)nc2sc(C(=O)OC(C)(C)C)c(-c3ccc(OC)cc3)c2c1C` [Compound 37, t-butyl 5-ethyl-3-(4-methoxy-phenyl)-4,6-dimethyl-thieno[2,3-b]pyridine-2-carboxylate], in data set [1], the IC50 is greater than 2 µM. With `Cc1cc(CO)c2c3c(sc2n1)C(=O)NC(c1ccccc1)N3` (stereo not drawn) [Compound 38, 4-hydroxymethyl-2-methyl-6-phenyl-6,7-dihydro-5H-9-thia-1,5,7-triaza-fluoren-8-one], in data set [1], the IC50 is greater than 2 µM. Turning to `CCc1c(C)nc2sc(C(=O)N3CCCCC3)c(-c3ccc(OC)cc3)c2c1C` [Compound 41], in data set [1], the IC50 was greater than 2 µM. With `CCc1c(C)nc2sc(C(=O)NCc3ccccc3)c(-c3ccc(OC)cc3)c2c1C` [Compound 44], the IC50 in data set [1] is greater than 2 µM.

With `Nc1c(C(=O)Nc2ccc(Br)cc2)sc2nc3c(c(-c4ccco4)c12)CCCCC3` [Compound 51], the IC50 in data set [1] is greater than 2 µM. As for `CCc1c(C)nc2sc(C(=O)SC(C)(C)C)c(N)c2c1C` [Compound 56], in data set [1], the IC50 was greater than 2 µM. Consider `COc1ccc(Nc2sc3nc4c(c(-c5cccs5)c3c2C#N)CCCCC4)cc1` [Compound 64], for which the IC50 in data set [1] was greater than 2 µM. Consider `Cc1nc2sc(C(=O)OC(C)(C)C)c(N)c2c(C)c1OCCN1CCCN(C)CC1` [Compound 68], for which, in data set [1], the IC50 lay in the range of 0.5 to 2 µM. For the molecule `Cc1nc2sc(C(=O)OC(C)(C)C)c(N)c2c(C)c1OCCN1CCN(CCCN(C)C)CC1` [Compound 69], in data set [1], the IC50 fell in the range of 0.5 to 2 µM. Regarding `Cc1nc2sc(C(=O)OC(C)(C)C)c(N)c2c(C)c1OCCN1CCCCC1` [Compound 70], the IC50 in data set [1] is 0.5 to 2 µM. `Cc1nc2sc(C(=O)OC(C)(C)C)c(N)c2c(C)c1OCCN(C)C` [Compound 72]: the IC50 in data set [1] was greater than 2 µM.

As to `Cc1nc2sc(C(=O)OC(C)(C)C)c(N)c2c(C)c1OCCN(C)CCN(C)C` [Compound 73], the IC50 in data set [1] fell in the range of 0.5 to 2 µM. As for `CCN1CCN(CCOc2c(C)nc3sc(C(=O)OC(C)(C)C)c(N)c3c2C)CC1` [Compound 74], in data set [1], the IC50 is greater than 2 µM.

The melting point is the temperature of the solid-liquid transition.
